Measured values as given in US8362008B2 (The University Of Edinburgh, priority 2007, dated 2013).
pIC50: −log10 of the molar value. Where a name gives a salt, the structure may show the parent alone.

The molecules below were run against T1, human 11β-HSD1 enzyme (Homo sapiens, UniProt P28845) (assay: Cellular in vitro 11β-HSD1 enzyme inhibition assay (SPA, HEK293/11β-HSD1 cells)). Details: HEK293, less than or equal to 1000 nM (1 μM).
T1 construct: stably transfected with a construct containing the full-length gene coding for the human 11β-HSD1 enzyme; expressed in transfected cells; host or cells: HEK293 (HEK293/11β-HSD1 cells)
T1 sequence (P28845 whole entry): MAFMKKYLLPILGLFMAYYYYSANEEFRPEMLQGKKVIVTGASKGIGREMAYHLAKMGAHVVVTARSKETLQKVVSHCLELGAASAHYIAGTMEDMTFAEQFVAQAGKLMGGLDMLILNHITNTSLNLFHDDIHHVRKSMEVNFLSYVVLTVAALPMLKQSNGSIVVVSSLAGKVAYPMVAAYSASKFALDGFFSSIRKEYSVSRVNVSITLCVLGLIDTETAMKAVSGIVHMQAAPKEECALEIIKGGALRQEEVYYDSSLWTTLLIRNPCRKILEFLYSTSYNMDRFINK
Assay type: cell-based
Experimental: Cellular In Vitro 11β-HSD1 Enzyme Inhibition Assay
Compounds were assessed by a Scintillation Proximity Assay (SPA) performed according to the following protocol:
HEK293 cells were stably transfected with a construct containing the full-length gene coding for the human 11β-HSD1 enzyme to create HEK293/11β-HSD1 cells. Cells were routinely cultured in DMEM containing 10% calf foetal serum, 1% glutamine, and 1% penicillin and streptomycin. Prior to assay, cells were plated at 2×10^4 cells/well in 96-well poly-D-Lys coated flat-bottomed microplates and incubated in 5% CO2, 95% O2 at 37° C. for 24 hours. The media in each well was removed immediately before assay.
Compounds to be tested were dissolved in DMSO at 10 mM and serially diluted into water containing 10% DMSO. Diluted compounds at a volume of 10 μL were added to wells of a 96-well V-bottomed microplate. […] This solution (100 μL/well) was transferred to the plate containing the cells. The plate was then incubated in 5% CO2, 95% O2 at 37° C. for 2 hours.
Following this incubation, 50 μL of the assay solution was transferred to each well of a 96-well scintillation microplate. A mixture consisting of anti-mouse YSi SPA beads, pre-mixed with anti-cortisol antibody in assay buffer (50 mM Tris.HCl, pH 7.0; 300 mM NaCl; 1 mM EDTA, 5% glycerol) was prepared and 50 μL added to each well of the scintillation microplate. An adhesive strip was applied to the microplate and the plate gently shaken for at least 2 hours at room temperature, and then spun briefly on a low speed centrifuge. The plate was read on a scintillation counter suitable for 96-well microplates. For the calculation of percentage inhibition, a series of wells were added to the plate that represented the assay maximum and the assay minimum: one set that contained substrate without cells (mimimum) and another set that contained substrate and cells without any compound (maximum).
The calculation of median inhibitory concentration (IC50) values for the compounds was performed using GraphPad Prism® software. Dose-response curves for each compound were plotted as fractional inhibition and data fitted to the four parameter logistic equation.
In the case of `CC(=O)N1CCC(c2cc(C(=O)N3CCCC(C)(C)CC3)cs2)CC1`, the pIC50 was no less than 6.00. `CC(=O)N1CCC(c2cc(C(=O)N3CCCC4CCCCC43)cs2)CC1` (stereo not drawn) showed a pIC50 of no less than 6.00. `O=C(c1csc(C2CCOCC2)c1)N1CCC[C@@H]2CCCC[C@@H]21` (racemic) [CC-027, cis-(octahydro-quinolin-1-yl)-[5-(tetrahydro-pyran-4-yl)-thiophen-3-yl]-methanone] showed a pIC50 of no less than 6.00. Work on `O=C(c1csc(C2CCS(=O)(=O)CC2)c1)N1CCC[C@@H]2CCCC[C@@H]21` (racemic) [CC-138, cis-[5-(1,1-Dioxo-hexahydro-thiopyran-4-yl)-thiophen-3-yl]-(octahydro-quinolin-1-yl)methanone] yielded a pIC50 of no less than 6.00. In the case of `O=C(NCCO)N1CCC(c2cc(C(=O)N3CCC[C@@H]4CCCC[C@@H]43)cs2)CC1` (racemic) [CC-157, cis-4-[4-(Octahydro-quinoline-1-carbonyl)-thiophen-2-yl]-piperidine-1-carboxylic acid(2-hydroxy-ethyl)-amide], the pIC50 was no less than 6.00. `O=C(c1csc(CC(F)(F)F)c1)N1CCC[C@@H]2CCCC[C@@H]21` (relative stereo) [AA-012, cis-(Octahydro-quinolin-1-yl)-[5-(2,2,2-trifluoro-ethyl)-thiophen-3-yl]-methanone] showed a pIC50 of no less than 6.00. Work on `N#CCc1cc(C(=O)N2CCC[C@@H]3CCCC[C@@H]32)cs1` (relative stereo) [AA-022, cis-[4-(Octahydro-quinoline-1-carbonyl)-thiophen-2-yl]-acetonitrile] yielded a pIC50 of no less than 6.00. `CC(=O)N1CCC(c2cc(C(=O)N3CCC[C@@H]4CCCC[C@@H]43)cs2)CC1` (relative stereo) [CC-035, cis-1-{4-[4-(Octahydro-quinoline-1-carbonyl)-thiophen-2-yl]-piperidin-1-yl}-ethanone] showed a pIC50 of no less than 6.00. Molecule `O=C(c1csc(C2=CCNCC2)c1)N1CCC[C@@H]2CCCC[C@@H]21` (relative stereo) [CC-046, cis-(octahydro-quinolin-1-yl)-[5-(1,2,3,6-tetrahydro-pyridin-4-yl)-thiophen-3-yl]-methanone] has a pIC50 of no less than 6.00. In the case of `O=C(CO)N1CCC(c2cc(C(=O)N3CCC[C@@H]4CCCC[C@@H]43)cs2)CC1` (relative stereo) [CC-053, cis-2-Hydroxy-1-{4-[4-(octahydro-quinoline-1-carbonyl)-thiophen-2-yl]-piperidin-1-yl}-ethanone], the pIC50 was no less than 6.00. For `CS(=O)(=O)N1CCC(c2cc(C(=O)N3CCC[C@@H]4CCCC[C@@H]43)cs2)CC1` (relative stereo) [CC-065, cis-[5-(1-Methanesulfonyl-piperidin-4-yl)-thiophen-3-yl]-(octahydro-quinolin-1-yl)-methanone], the pIC50 was no less than 6.00. In the case of `COC(=O)N1CCC(c2cc(C(=O)N3CCC[C@@H]4CCCC[C@@H]43)cs2)CC1` (relative stereo) [CC-066, cis-4-[4-(Octahydro-quinoline-1-carbonyl)-thiophen-2-yl]-piperidine-1-carboxylic acid methyl ester], the pIC50 was no less than 6.00. `NC(=O)N1CCC(c2cc(C(=O)N3CCC[C@@H]4CCCC[C@@H]43)cs2)CC1` (relative stereo) [CC-068, cis-4-[4-(Octahydro-quinoline-1-carbonyl)-thiophen-2-yl]-piperidine-1-carboxylic acid amide] gave a pIC50 of no less than 6.00. `N#CC1(c2cc(C(=O)N3CCC[C@@H]4CCCC[C@@H]43)cs2)CCOCC1` (relative stereo) [CC-127, cis-4-[4-(Octahydro-quinoline-1-carbonyl)-thiophen-2-yl]-tetrahydro-pyran-4-carbonitrile] showed a pIC50 of no less than 6.00. Work on `CC(C)(C(N)=O)N1CCC(c2cc(C(=O)N3CCC[C@@H]4CCCC[C@@H]43)cs2)CC1` (relative stereo) [CC-158, cis-2-{4-[4-(Octahydro-quinoline-1-carbonyl)-thiophen-2-yl]-piperidin-1-yl}-isobutyramide] yielded a pIC50 of no less than 6.00. With `O=C(c1csc(C2CCNC2)c1)N1CCC[C@@H]2CCCC[C@@H]21` (relative stereo) [CC-177, cis-(Octahydro-quinolin-1-yl)-(5-pyrrolidin-3-yl-thiophen-3-yl)-methanone] the pIC50 was no less than 6.00. Molecule `O=C(c1csc(C2CCNCC2)c1)N1CCCC2CCCCC21` (single isomer, unassigned) [CC-044, trans-(Octahydro-quinolin-1-yl)-(5-piperidin-4-yl-thiophen-3-yl)-methanone] has a pIC50 of no less than 6.00. `CC1(C)CC2CC(C)(CN2C(=O)c2csc(C3CCNCC3)c2)C1` (single isomer, unassigned) [CC-075, (5-Piperidin-4-yl-thiophen-3-yl)-(1,3,3-trimethyl-6-aza-bicyclo[3.2.1]oct-6-yl)-methanone] was tested, and the pIC50 was no less than 6.00. `CC(=O)N1CCC(c2cc(C(=O)N3CCC[C@@H]4CCCC[C@@H]43)cs2)CC1` (single isomer, unassigned) [CC-114, cis-1-{4-[4-(Octahydro-quinoline-1-carbonyl)-thiophen-2-yl]-piperidin-1-yl}-ethanone] showed a pIC50 of no less than 6.00. For `O=C(c1csc(C2CCNCC2)c1)N1CCCCC1c1ccccc1` (single isomer, unassigned) [CC-130, cis-(2-Phenyl-piperidin-1-yl)-(5-piperidin-4-yl-thiophen-3-yl) methanone], the pIC50 was no less than 6.00.

Same assay, conditions: HEK293, more than 1000 nM (1.0 μM) and less than or equal to 30 μM
Work on `O=C(c1csc(C2CCOCC2)c1)N1CCCC(F)(F)CC1` yielded a pIC50 of 4.52 to 6.00. In the case of `O=C(c1csc(C2CCN(CCO)CC2)c1)N1CCC[C@@H]2CCCC[C@@H]21` (racemic) [CC-088, cis-1-(2-Hydroxy-ethyl)-4-[4-(octahydro-quinoline-1-carbonyl)-thiophen-2-yl]-piperidinium formate], the pIC50 was 4.52 to 6.00. In the case of `Cn1cc(CN2CCC(c3cc(C(=O)N4CCC[C@@H]5CCCC[C@@H]54)cs3)CC2)cn1` (racemic) [CC-152, cis-1-(1-Methyl-1H-pyrazol-4-ylmethyl)-4-[4-(octahydro-quinoline-1-carbonyl)-thiophen-2-yl]-piperidinium formate], the pIC50 was 4.52 to 6.00. For `O=C(c1csc(C2CCNCC2)c1)N1CCC[C@@H]2CCCC[C@H]21` (relative stereo) [CC-034, trans-(Octahydro-quinolin-1-yl)-(5-piperidin-4-yl-thiophen-3-yl)-methanone], the pIC50 was 4.52 to 6.00. `CN1CCC(c2cc(C(=O)N3CCC[C@@H]4CCCC[C@@H]43)cs2)CC1` (relative stereo) [CC-038, cis-[5-(1-Methyl-piperidin-4-yl)-thiophen-3-yl]-(octahydro-quinolin-1-yl)-methanone] gave a pIC50 of 4.52 to 6.00. Molecule `O=C1CNCCN1c1cc(C(=O)N2CCC[C@@H]3CCCC[C@@H]32)cs1` (relative stereo) [CC-048, cis-1-[4-(Octahydro-quinoline-1-carbonyl)-thiophen-2-yl]-piperazin-2-one] has a pIC50 of 4.52 to 6.00. Work on `CNCC(=O)N1CCC(c2cc(C(=O)N3CCC[C@@H]4CCCC[C@@H]43)cs2)CC1` (relative stereo) [CC-055, cis-2-Methylamino-1-{4-[4-(octahydro-quinoline-1-carbonyl)-thiophen-2-yl]-piperidin-1-yl}-ethanone] yielded a pIC50 of 4.52 to 6.00. `O=C(CCN1CCCCC1)N1CCC(c2cc(C(=O)N3CCC[C@@H]4CCCC[C@@H]43)cs2)CC1` (relative stereo) [CC-061, cis-1-{4-[4-(Octahydro-quinoline-1-carbonyl)-thiophen-2-yl]-piperidin-1-yl}-3-piperidin-1-yl-propan-1-one] gave a pIC50 of 4.52 to 6.00. With `O=C(c1csc(C2CCN(c3ncccn3)CC2)c1)N1CCC[C@@H]2CCCC[C@@H]21` (relative stereo) [CC-121, cis-(Octahydro-quinolin-1-yl)-[5-(1-pyrimidin-2-yl-piperidin-4-yl)-thiophen-3-yl]-methanone] the pIC50 was 4.52 to 6.00. `O=C(c1csc(C2CCN(CC(F)(F)F)CC2)c1)N1CCC[C@@H]2CCCC[C@@H]21` (relative stereo) [CC-172, cis-(Octahydro-quinolin-1-yl)-{5-[1-(2,2,2-trifluoro-ethyl)-piperidin-4-yl]-thiophen-3-yl}-methanone] showed a pIC50 of 4.52 to 6.00. For `O=C(c1csc(C2CCNCC2)c1)N1CCC[C@@H]2CCCC[C@@H]21` (single isomer, unassigned) [CC-039, cis-(octahydro-quinolin-1-yl)-(5-piperidin-4-yl-thiophen-3-yl)-methanone], the pIC50 was 4.52 to 6.00. With `O=C(c1csc(C2CCNCC2)c1)N1CCCC2CCCCC21` (single isomer, unassigned) [CC-045, trans-(Octahydro-quinolin-1-yl)-(5-piperidin-4-yl-thiophen-3-yl)-methanone] the pIC50 was 4.52 to 6.00. Molecule `CC1(C)CC2CC(C)(CN2C(=O)c2csc(C3CCNCC3)c2)C1` (single isomer, unassigned) [CC-076, (5-Piperidin-4-yl-thiophen-3-yl)-(1,3,3-trimethyl-6-aza-bicyclo[3.2.1]oct-6-yl)-methanone] has a pIC50 of 4.52 to 6.00.
